Here are results for 2 compounds from patent US20040023840A1, “Combination of organic compounds” (priority 2003, published 2004).

Assay [1] relates to pressor effect of Ang II. As to conditions: Ang II at 1 mg/kg, normotensive rats, cited from earlier work.
In assay [2] the test system is SHR with endothelial dysfunction. As to the kind of experiment: Survival of SHR with chronic NO synthase blockade (L-NAME), endothelial dysfunction model. The settings on record: for survival rate: SHR + L-NAME 12 weeks; for kidney lesions / proteinuria: low doses of valsartan and enalapril. The format is in vivo, rat. The method, then:
Male 20-24 week-old SHR, purchased from RCC Ldt (Fullingsdorf, Switzerland), are maintained in a temperature- and light-controlled room with free access to rat chow (Nafag 9331, Gossau, Switzerland) and tap water. The experiment is p rformed in accordance with the NIH guidelines and approved by the Canton Veterinary office (Bew 161, Kantonales V t rin{overscore (a)}ramt, Liestal, Switzerland). All rats are treated with the NO synthase inhibitor L-NAME (Sigma Chemicals) administered in drinking water (50 mg/l) for 12 weeks. The average daily dose of L-NAME calculated from the water consumed was 2.5 mg/kg/d (range 2.1-2.7).
(§1) The rats are divided into 5 groups: group 1, control (n=40); Group 2, valsartan (val5, 5 mg/kg/d; n=40); Group 3, enalapril (ena1, 1 mg/kg/d; n=30); Group 4, a combination (ena1val5) of enalapril (1 mg/kg/d) and valsartan (5 mg/kg/d); n=30) and Group 5, valsartan (val50, 50 mg/kg/d; n=30). The drugs are administered in drinking fluid. […] The pressor effect of Ang II at […] obtained in controls normotensive rats is reduced by 49% and 73% after treatment with valsartan 5 and 50 mg/kg/d, respectively (Gervais et al. 1999). The response to Ang I injected in Wistar Kyoto rats pretreated with enalapril 1 mg/kg/d or valsartan 5 mg/kg/d is similar.
Body weight is measured every week. Systolic blood pressure and heart rate are recorded by tail cuff plethysmography 3 and 2 weeks before starting the study and at 2 weeks after drug administration. Urine is collected over a 24 hour period from rats kept in individual (metabolic) cages the week before starting treatment and at weeks 4 and 12 for volume measurement and protein, creatinine, sodium and potassium determination using standard laboratory methods. At the same time points, blood samples are withdrawn from the retro-orbital plexus (maximum 1 ml) for creatinine, Na^+ and K^+ assays.
Ten rats from each group are sacrificed at 4 weeks for collection of kidney and heart for morphological analysis. The remaining rats are sacrificed at 12 weeks. Cardiac and kidney weight is recorded. Terminal blood sampling is performed in 5% EDTA at 4 (morphometry study) and 12 (end of the study) weeks for aldosterone, determination by radioimmunoassay using a DPC coat-a-count aldosterone-RIA kit (Bühlmann, Switzerland).
All data are expressed as mean±SEM. Statistical analysis is performed using a one-way ANOVA, followed by a Duncan's multiple range test and a Newman-Keuls test, 7 for comparison between the different groups. Results with a probability value of less than 0.05 are deemed statistically significant.

Assay [3] deals with response to Ang I. The assay is described as follows: Response to Ang I injected in pretreated Wistar Kyoto rats. The format is in vivo, rat. The settings on record: Wistar Kyoto rats pretreated with enalapril 1 mg/kg/d or valsartan 5 mg/kg/d; the two compared. The method, then: as §1
Setting [4] is: non-blood pressure reducing doses in drinking fluid: valsartan 5 mg/kg/d, enalapril 1 mg/kg/d, or both combined.

Each structure is given as a SMILES string. Read-outs that look alike come from different tables or passages of the source.

For `CCCCC(=O)N(Cc1ccc(-c2ccccc2-c2nnn[nH]2)cc1)[C@H](C(=O)O)C(C)C` [valsartan], the “reduction of pressor effect of Ang II” value in assay [1] (valsartan 5 mg/kg/d (Gervais et al. 1999)) was 49%; in assay [1] (valsartan 50 mg/kg/d (Gervais et al. 1999)) it was 73%. In addition, the survival rate turned out to be 95% in assay [2] (high dose valsartan 50 mg/kg/d in drinking fluid) and 67% in assay [2] (setting [4]). Moreover, the kidney lesions result in assay [2] (SHR + L-NAME) is “no reduction”. Further, the proteinuria result in assay [2] (SHR + L-NAME) is on record as “no decrease”. Moreover, the systolic blood pressure result in assay [2] (SHR + L-NAME, valsartan 50 mg/kg, increase in blood pressure significantly attenuated) is given as “above 250 mmHg”. In addition, in assay [3], the “response to Ang I” value is on record as “similar”.
In the case of `CCOC(=O)[C@H](CCc1ccccc1)N[C@@H](C)C(=O)N1CCC[C@H]1C(=O)O` [enalapril], in assay [2] (setting [4]), the survival rate turned out to be 55%. In assay [2] (SHR + L-NAME), the kidney lesions entry is “no reduction” and the proteinuria entry is listed as “no decrease”. Further, the “response to Ang I” value in assay [3] was “similar”.
